This test has as its target T1, human PAD4 (Homo sapiens, UniProt Q9UM07).
T1 construct: human PAD4 (NM_012387), A2-P663, was PCR amplified; His-SUMO (N, cleaved yes); made in house; host or cells: E. coli BL21(DE3)
Put plainly: In vitro PAD4 BAEE biochemical assay. The following applies: BAEE substrate 3 mM, 5 nM PAD4, 2 mM calcium chloride; geometric mean of multiple experiments. Summed up: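 Recombinant PAD4 (5 nM final) with 2 mM CaCl2 was preincubated with compound for 30 min at 25 °C in MOPS pH 7.6 buffer with DTT, then reacted with 3 mM BAEE for 2 h at 25 °C. Released ammonia was detected fluorimetrically with o-phthalaldehyde/DTT; IC50 from four-parameter fit, geometric mean of experiments.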
T1 sequence (Q9UM07 2-663): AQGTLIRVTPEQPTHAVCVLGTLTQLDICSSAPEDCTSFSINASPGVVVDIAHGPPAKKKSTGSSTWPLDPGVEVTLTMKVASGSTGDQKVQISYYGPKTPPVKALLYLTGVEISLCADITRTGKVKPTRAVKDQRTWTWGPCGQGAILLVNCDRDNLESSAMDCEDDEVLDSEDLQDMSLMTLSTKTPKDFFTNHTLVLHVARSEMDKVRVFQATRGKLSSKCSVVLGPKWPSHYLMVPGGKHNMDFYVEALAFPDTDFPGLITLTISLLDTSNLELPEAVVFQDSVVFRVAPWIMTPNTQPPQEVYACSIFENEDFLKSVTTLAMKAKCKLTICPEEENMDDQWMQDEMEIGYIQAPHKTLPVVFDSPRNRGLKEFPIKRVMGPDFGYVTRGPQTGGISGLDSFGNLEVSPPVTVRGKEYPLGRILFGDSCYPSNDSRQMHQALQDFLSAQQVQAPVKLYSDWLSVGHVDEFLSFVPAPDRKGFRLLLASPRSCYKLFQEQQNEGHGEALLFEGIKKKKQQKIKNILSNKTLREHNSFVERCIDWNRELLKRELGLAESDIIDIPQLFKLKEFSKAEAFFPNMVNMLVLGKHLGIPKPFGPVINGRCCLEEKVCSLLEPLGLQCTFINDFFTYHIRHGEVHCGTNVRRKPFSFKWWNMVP
A word on the IC50: it is the midpoint of a concentration-inhibition curve. With `COc1cc(C(=O)N2[C@H]3CC[C@@H]2[C@H](N)C3)cc2nc(-c3cc4ccc5nc4n3CCCCOCC(=O)N[C@@H]5C)c(C)n12` [Example 324, (10~{R})-16-[7-[(1~{R},2~{R},4~{S})-2-amino-7-azabicyclo[2.2.1]heptane-7-carbonyl]-5-methoxy-3-methyl-imidazo[1,2-a]pyridin-2-yl]-10-methyl-6-oxa-1,9,18-triazatricyclo[9.5.2.0^{14,17}]octadeca-11(18),12,14(17),15-tetraen-8-one], the IC50 worked out at 36 nM.

Turning to `COc1cc(C(=O)N2[C@H]3CC[C@@H]2[C@H](N)C3)cc2nc(-c3cc4ccc5nc4n3C[C@H]3C[C@@H]3COCC(=O)N[C@@H]5C)c(C)n12` [Example 325, (3~{S},5~{S},11~{R})-17-[7-[(1~{R},2~{R},4~{S})-2-amino-7-azabicyclo[2.2.1]heptane-7-carbonyl]-5-methoxy-3-methyl-imidazo[1,2-a]pyridin-2-yl]-11-methyl-7-oxa-1,10,19-triazatetracyclo[10.5.2.0^{3,5}.0^{15,18}] nonadeca-12(19),13,15(18),16-tetraen-9-one], the IC50 turned out to be 16 nM.

Consider `COc1cc(C(=O)N2[C@H]3CC[C@@H]2[C@H](N)C3)cc2nc(-c3cc4ccc5nc4n3C[C@@H]3C[C@H]3COCC(=O)N[C@@H]5C)c(C)n12` [Example 326, (3~{R},5~{R},11~{R})-17-[7-[(1~{R},2~{R},4~{S})-2-amino-7-azabicyclo[2.2.1]heptane-7-carbonyl]-5-methoxy-3-methyl-imidazo[1,2-a]pyridin-2-yl]-11-methyl-7-oxa-1,10,19-triazatetracyclo[10.5.2.0^{3,5}.0^{15,18}] nonadeca-12(19),13,15(18),16-tetraen-9-one], for which the IC50 stood at 30 nM.

Take `COc1cc(C(=O)N2[C@H]3CC[C@@H]2[C@H](N)C3)cc2nc(-c3cc4ccc5nc4n3CC3(CC3)COCCC(=O)N[C@@H]5C)c(C)n12` [Example 329, (10~{R})-16-[7-[(1~{R},2~{R},4~{S})-2-amino-7-azabicyclo[2.2.1]heptane-7-carbonyl]-5-methoxy-3-methyl-imidazo[1,2-a]pyridin-2-yl]-10-methyl-spiro[5-oxa-1,9,18-triazatricyclo[9.5.2.0^{14,17}]octadeca-11(18),12,14(17),15-tetraene-3,1′-cyclopropane]-8-one]: the IC50 was 48 nM.

With `COc1cc(C(=O)N2[C@H]3CC[C@@H]2[C@H](N)C3)cc2nc(-c3cc4ccc5nc4n3CCC3(CCOCC(=O)N[C@@H]5C)CC3)c(C)n12` [Example 330, (11~{R})-17-[7-[(1~{R},2~{R},4~{S})-2-amino-7-azabicyclo[2.2.1]heptane-7-carbonyl]-5-methoxy-3-methyl-imidazo[1,2-a]pyridin-2-yl]-11-methyl-spiro[7-oxa-1,10,19-triazatricyclo[10.5.2.0^{15,18}]nonadeca-12(19),13,15(18),16-tetraene-4,1′-cyclopropane]-9-one], the IC50 stood at 80 nM.

As to `COc1cc(C(=O)N2[C@H]3CC[C@@H]2[C@H](N)C3)cc2nc(-c3cc4ccc5nc4n3CCC3(CC3)COCCC(=O)N[C@@H]5C)c(C)n12` [Example 331, (11~{R})-17-[7-[(1~{R},2~{R},4~{S})-2-amino-7-azabicyclo[2.2.1]heptane-7-carbonyl]-5-methoxy-3-methyl-imidazo[1,2-a]pyridin-2-yl]-11-methyl-spiro[6-oxa-1,10,19-triazatricyclo[10.5.2.0^{15,18}]nonadeca-12(19),13,15(18),16-tetraene-4,1′-cyclopropane]-9-one], the IC50 was found to be 69 nM.

Take `COc1cc(C(=O)N2[C@H]3CC[C@@H]2[C@H](N)C3)cc2nc(-c3cc4ccc5nc4n3CCCCC[C@H](OC)CC(=O)N[C@@H]5C)c(C)n12` [Example 332, (7~{S},11~{R})-17-[7-[(1~{R},2~{R},4~{S})-2-amino-7-azabicyclo[2.2.1]heptane-7-carbonyl]-5-methoxy-3-methyl-imidazo[1,2-a]pyridin-2-yl]-7-methoxy-11-methyl-1,10,19-triazatricyclo[10.5.2.0^{15,18}]nonadeca-12(19),13,15(18),16-tetraen-9-one]: the IC50 worked out at 20 nM.

(Values after patent US11976083B2, “Inhibitors of peptidylarginine deiminases” (Gilead Sciences, Inc., priority 2020, dated 2024).)
